In data set [1] the test system is TNFa production by LPS-stimulated human monocytes. The data set is described as follows: In vitro assay 4: rescue of TNFa production from human primary monocytes. The format is cell-based. The note with it: concentration (of 1, 0.3, 0.1 μM tested) at which highest TNFa rescue was observed; one value per donor. As for the experimental part: In Vitro Assay 4: Rescue of TNFa Production from Human Primary Monocytes
The ability of the substances to enhance immune cell activity was determined. The substances were tested for their capacity to reverse KA-induced inhibition of TNFa production by LPS-stimulated human monocytes. Human monocytes were purified by negative selection from donor PBMCs using Miltenyi beads and seeded at 2×10^5 cells/well in complete growth medium (RPMI 1640, 10% FCS). Monocytes were incubated with 10 ng/mL LPS (0127:68, #L4516, Sigma) and 200 μM KA (#3375, Sigma) and substances were added at concentrations of 1 μM, 0.3 μM and 0.1 μM and cultured for 18 hours. LPS alone served as the positive control. TNFa production in the supernatant was measured by Meso Scale Discovery immunassay and the ability of the substances to rescue TNFa production was calculated as a percentage of LPS stimulation and KA-induced inhibition and normalized to the donor-specific response with the reference AHR antagonist compound GNF-351 (Smith et al., J Pharmacol Exp Ther, 2011, 338(1):318-27).

For data set [2], the target named is T1, AHR (Homo sapiens, UniProt P35869).
T1 sequence (P35869 11-848): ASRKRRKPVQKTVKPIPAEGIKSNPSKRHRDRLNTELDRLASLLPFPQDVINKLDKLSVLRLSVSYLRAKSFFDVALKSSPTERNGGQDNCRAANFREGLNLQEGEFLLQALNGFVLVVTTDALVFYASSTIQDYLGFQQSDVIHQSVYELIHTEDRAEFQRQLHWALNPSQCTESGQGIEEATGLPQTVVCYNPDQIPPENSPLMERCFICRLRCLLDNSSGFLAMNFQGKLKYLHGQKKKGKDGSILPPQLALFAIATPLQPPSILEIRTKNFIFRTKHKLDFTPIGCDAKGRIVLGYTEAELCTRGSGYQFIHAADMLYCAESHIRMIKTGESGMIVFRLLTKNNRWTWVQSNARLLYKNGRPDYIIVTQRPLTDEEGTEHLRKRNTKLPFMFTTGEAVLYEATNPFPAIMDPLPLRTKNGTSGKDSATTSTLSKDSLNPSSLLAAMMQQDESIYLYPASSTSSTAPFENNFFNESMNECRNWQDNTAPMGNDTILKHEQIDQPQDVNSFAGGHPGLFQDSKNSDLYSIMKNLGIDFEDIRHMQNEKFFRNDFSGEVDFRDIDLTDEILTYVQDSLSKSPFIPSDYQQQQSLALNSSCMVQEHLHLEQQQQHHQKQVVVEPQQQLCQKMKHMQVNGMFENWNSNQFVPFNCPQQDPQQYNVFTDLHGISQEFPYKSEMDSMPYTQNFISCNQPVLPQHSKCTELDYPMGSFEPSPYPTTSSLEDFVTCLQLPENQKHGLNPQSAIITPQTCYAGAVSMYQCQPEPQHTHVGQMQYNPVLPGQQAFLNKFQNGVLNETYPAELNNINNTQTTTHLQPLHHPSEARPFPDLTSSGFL
The data set is described as follows: In vitro assay 1: antagonism in human cell line (transactivation assay, kynurenic acid prestimulated). The note with it: Assay 1: AHR-luc Hum Antagonism IC50 [M], 150 μM kynurenic acid, 20 hours, firefly luciferase.

Data set [3] has as its target T1, AHR. The data set can be described thus: In vitro assay 2: agonism in human cell line (transactivation assay). To be noted: for IC50: Assay 2: AHR-luc Hum Agonism IC50 [M], no kynurenic acid, 20 hours, firefly luciferase; for pIC50: read-out: Assay 2: AHR-luc Hum Agonism IC50, no kynurenic acid, 20 hours, firefly luciferase.
For data set [4], the system named is AHR-regulated gene CYP1A1. The data set is described as follows: In vitro assay 3: AHR-regulated CYP1A1 expression in human cell line (U937, qPCR). To be noted: for IC50: Homo sapiens, U-937, 6 h, read-out: Assay 3: Hum CYP1A1 Antagonism IC50 [M], U937 cells, 200 μM KA, 6 hours, qPCR; for pIC50: read-out: Assay 3: Hum CYP1A1 Antagonism IC50, U937 cells, 200 μM KA, 6 hours, qPCR.

Each structure is given as a SMILES string. pIC50: −log10 of the molar value. Values joined by “and” are separate entries in the source; they are usually repeats but may differ in a detail not shown here. Equal entries are not always repeated. Where two headings read alike, the source gives them in different places.

On to `Cc1cncc(-c2nc(NCCc3c[nH]c4ccccc34)c3ncn(C(C)C)c3n2)c1` [GNF-351, reference compound], for which, in data set [1], the “Individual Donors Conc of highest rescue” value was 0.3 µM and 0.1 µM.
Turning to `O=C(NC1(CO)CCC1)c1cc(-c2ccc(Cl)cc2)nn(-c2cccc(F)c2)c1=O` [Example 213, 6-(4-Chlorophenyl)-2-(3-fluorophenyl)-N-[1-(hydroxymethyl)cyclobutyl]-3-oxo-2,3-dihydropyridazine-4-carboxamide], the figures for the IC50 (against AHR [2]; at AHR [3]; in data set [4]) were 8.72e-08 M, greater than 2e-05 M and 2.21e-07 M, respectively.
The matching figures for `CC(C)[C@@H](CO)NC(=O)c1cc(-c2ccc(Cl)cc2)nn(-c2cccc(F)c2)c1=O` [Example 20, 6-(4-Chlorophenyl)-2-(3-fluorophenyl)-N-[(2S)-1-hydroxy-3-methylbutan-2-yl]-3-oxo-2,3-dihydropyridazine-4-carboxamide]: 1.18e-08 M, greater than 2e-05 M and 1.22e-08 M.
In the case of `O=C(NC[C@H](O)CO)c1cc(-c2ccc(C(F)(F)F)cc2)nn(-c2cccc(F)c2)c1=O` [Example 264, (−)-N-[(2S)-2,3-Dihydroxypropyl]-2-(3-fluorophenyl)-3-oxo-6-[4-(trifluoromethyl)phenyl]-2,3-dihydropyridazine-4-carboxamide], the IC50 against AHR [2] was 7.05e-08 M; against AHR [3], greater than 2e-05 M; in data set [4], 8.01e-08 M.
The matching figures for `CC(C)(O)[C@@H](NC(=O)c1cc(-c2ccc(OC(F)(F)F)cc2)nn(-c2cccc(F)c2)c1=O)C1CC1` [Example 379, N-[(1S)-1-cyclopropyl-2-hydroxy-2-methylpropyl]-2-(3-fluorophenyl)-3-oxo-6-[4-(trifluoromethoxy)phenyl]-2,3-dihydropyridazine-4-carboxamide]: 9.6e-09 M, greater than 2e-05 M and 6.9e-09 M.
As for `O=C(NCC(O)C(F)(F)F)c1cc(-c2ccc(Cl)cc2)nn(-c2cccc(F)c2)c1=O` (single isomer, unassigned) [Example 26, 6-(4-Chlorophenyl)-2-(3-fluorophenyl)-3-oxo-N-(3,3,3-trifluoro-2-hydroxypropyl)-2,3-dihydropyridazine-4-carboxamide], the 50% inhibitory concentration (IC50) at AHR [2] is 1.84e-08 M; on AHR [3], greater than 2e-05 M. Besides, the negative logarithm of the IC50 (pIC50) in data set [4] was 7.45.
On AHR [2], `COc1ccc(-c2cc(C(=O)NCC(O)C(F)(F)F)c(=O)n(-c3cccc(F)c3)n2)cc1` (single isomer, unassigned) [Example 128, 2-(3-Fluorophenyl)-6-(4-methoxyphenyl)-3-oxo-N-(3,3,3-trifluoro-2-hydroxypropyl)-2,3-dihydropyridazine-4-carboxamide] showed an IC50 of 1.7e-07 M. The pIC50 on AHR [3] is less than 4.70; in data set [4] it was 6.22.
Take `CC(O)C(NC(=O)c1cc(-c2ccc(Cl)cc2)nn(-c2cccc(F)c2)c1=O)C(F)(F)F` (mixture of isomers) [Example 197, 6-(4-Chlorophenyl)-2-(3-fluorophenyl)-3-oxo-N-[(2RS, 3RS)-1,1,1-trifluoro-3-hydroxybutan-2-yl]-2,3-dihydropyridazine-4-carboxamide and 6-(4-Chlorophenyl)-2-(3-fluorophenyl)-3-oxo-N-[(2RS, 3SR)-1,1,1-trifluoro-3-hydroxybutan-2-yl]-2,3-dihydropyridazine-4-carboxamide]: the IC50 against AHR [2] is 1.97e-08 M; at AHR [3], greater than 2e-05 M; in data set [4] it was 1.82e-08 M.
The matching figures for `O=C(N[C@H]1CCC[C@@H]1O)c1cc(-c2ccc(Cl)cc2)nn(-c2cccc(F)c2)c1=O` [Example 115, 6-(4-Chlorophenyl)-2-(3-fluorophenyl)-N-[(1S,2S)-2-hydroxycyclopentyl]-3-oxo-2,3-dihydropyridazine-4-carboxamide]: 2.72e-08 M, greater than 2e-05 M and 1.31e-08 M.
Take `Cc1ccc(-c2cc(C(=O)NCC(O)C(C)C)c(=O)n(-c3cc(F)cc(F)c3)n2)cc1` (single isomer, unassigned) [Example 58, 2-(3,5-Difluorophenyl)-N-(2-hydroxy-3-methylbutyl)-6-(4-methylphenyl)-3-oxo-2,3-dihydropyridazine-4-carboxamide]: the IC50 against AHR [2] worked out at 4.28e-08 M. In addition, the pIC50 was less than 4.70 at AHR [3] and 6.87 in data set [4].
Regarding `O=C(NCC(O)C(F)F)c1cc(-c2ccc(C(F)(F)F)cc2)nn(-c2cccc(F)c2)c1=O` (single isomer, unassigned; (-)) [Example 327, (−)-N-(3,3-difluoro-2-hydroxypropyl)-2-(3-fluorophenyl)-3-oxo-6-[4-(trifluoromethyl)phenyl]-2,3-dihydropyridazine-4-carboxamide], the 50% inhibitory concentration (IC50) against AHR [2] was 1.66e-08 M; against AHR [3], greater than 2e-05 M. In data set [4], the negative-log IC50 (pIC50) is 7.86.
For `C[C@@H](CO)NC(=O)c1cc(-c2ccc(N3CCOCC3)cc2)nn(-c2cccc(F)c2)c1=O` [Example 374, 2-(3-fluorophenyl)-N-[(2S)-1-hydroxypropan-2-yl]-6-[4-(morpholin-4-yl)phenyl]-3-oxo-2,3-dihydropyridazine-4-carboxamide], the values for the IC50 (against AHR [2]; against AHR [3]; in data set [4]) were 2.65e-08 M, greater than 2e-05 M and greater than 3e-07 M, respectively.
On to `CC(NC(=O)c1cc(-c2ccc(C(F)(F)F)cc2)nn(-c2cccc(F)c2)c1=O)C(O)C(F)(F)F` (single isomer, unassigned) [Example 270, Isomer no. 3 of 2-(3-fluorophenyl)-3-oxo-N-(4,4,4-trifluoro-3-hydroxybutan-2-yl)-6-[4-(trifluoromethyl)phenyl]-2,3-dihydropyridazine-4-carboxamide], for which the IC50 on AHR [2] was 6.12e-09 M; against AHR [3], greater than 2e-05 M. In data set [4], the pIC50 was 8.26.
Take `O=C(N[C@H](CO)C(F)(F)F)c1cc(-c2ccc(C(F)F)cc2)nn(-c2cccc(F)c2)c1=O` [Example 296, 6-[4-(Difluoromethyl)phenyl]-2-(3-fluorophenyl)-3-oxo-N-[(2R)-1,1,1-trifluoro-3-hydroxypropan-2-yl]-2,3-dihydropyridazine-4-carboxamide]: the results for the concentration for half-maximal inhibition (IC50) (against AHR [2]; on AHR [3]; in data set [4]) were 3.66e-09 M, greater than 2e-05 M and 6.22e-09 M, respectively.
As to `O=C(NC(CO)C1CCOC1)c1cc(-c2ccc(OC(F)(F)F)cc2)nn(-c2cccc(F)c2)c1=O` (single isomer, unassigned) [Example 177, 2-(3-Fluorophenyl)-N-[2-hydroxy-1-(tetrahydrofuran-3-yl)ethyl]-3-oxo-6-[4-(trifluoromethoxy)phenyl]-2,3-dihydropyridazine-4-carboxamide], the IC50 on AHR [2] was 3.19e-07 M. Further, the figures for the pIC50 (on AHR [3]; in data set [4]) were less than 4.70 and 6.22, respectively.
Take `O=C(NC(CO)C1CCC1)c1cc(-c2ccc(Cl)cc2)nn(-c2cccc(F)c2)c1=O` (single isomer, unassigned; (-)) [Example 211, (−)-6-(4-Chlorophenyl)-N-(1-cyclobutyl-2-hydroxyethyl)-2-(3-fluorophenyl)-3-oxo-2,3-dihydropyridazine-4-carboxamide]: the 50% inhibitory concentration (IC50) came to 1.66e-08 M at AHR [2] and 2.23e-08 M in data set [4]. Moreover, the pIC50 at AHR [3] is less than 4.70.
Consider `CC(CO)CNC(=O)c1cc(-c2ccc(C(F)(F)F)cc2)nn(-c2cccc(F)c2)c1=O` (racemic) [Example 245, 2-(3-Fluorophenyl)-N-[(2RS)-3-hydroxy-2-methylpropyl]-3-oxo-6-[4-(trifluoromethyl)phenyl]-2,3-dihydropyridazine-4-carboxamide], for which the IC50 against AHR [2] was 3.72e-08 M; on AHR [3], greater than 2e-05 M; in data set [4] it was 5.44e-08 M.

What is called IC50 is the midpoint of a concentration-inhibition curve. In general, pIC50 refers to the IC50 on a negative log10 scale, so that one unit is a factor of ten.

Values taken from US11040035B2, “3-oxo-2,6-diphenyl-2,3-dihydropyridazine-4-carboxamides” (BAYER PHARMA AKTIENGESELLSCHAFT, priority 2016, dated 2021).
